Reference: a melting point compilation (Tetko et al.; mined from patent text by program, amines drawn as free bases though some values may be those of a salt)

`N#Cc1cc(F)cc(-c2cc([N+](=O)[O-])c3c(c2)C2(CCCCC2)C(=O)N3)c1` showed a melting point of 196 °C. Molecule `CCOC(=O)C1=C(O)c2cc(OC)c(OC)cc2NC(=O)C1` has a melting point of 218 °C. Molecule `CS(=O)(=O)OCCc1ccc([N+](=O)[O-])cc1COS(C)(=O)=O` has a melting point of 83 to 85 °C. Work on `COc1cc(/C=C/C(=O)CC(=O)C2(C)CC2)ccc1O` yielded a melting point of 78 to 80 °C. `O=C(CCCCN1CCOCC1)NNC(=O)N1Cc2ccccc2Oc2ccc(Cl)cc21` showed a melting point of 107 to 114 °C. `CC(C)C(=O)NCCOc1ccc([N+](=O)[O-])cc1` showed a melting point of 102 to 103 °C. `Nc1nc(CCCc2ccccc2)nc2nc(-c3ccco3)nn12` showed a melting point of 164 to 167 °C. `CN1CCN(c2cc3c(cc2F)c(=O)c(C(=O)O)cn3C2COC2)CC1` showed a melting point of 178 to 180 °C. Molecule `COc1cc(N)c(Cl)cc1C(=O)NCC1CCN(CCCCNC(=O)c2cccc3ccccc23)CC1` has a melting point of 138 to 141 °C. With `CC1(C)CCc2c(ccc3c2C(=O)C(Cl)=C(Cl)C3=O)O1` the melting point was 158 to 160 °C. For `CCOC(=O)C(=CNc1cnc2ccccc2n1)c1ccccc1`, the melting point was 193 to 194 °C. For `O=C1CC(S(=O)Cc2ccccc2)N1CCCc1ccccc1` (configuration not stated), the melting point was 93 to 96 °C. `O=C(Oc1ccccc1)c1cc(Br)nn1-c1ncccc1Cl` gave a melting point of 65 to 67 °C. `CC(=O)N(N(CCCl)S(C)(=O)=O)S(C)(=O)=O` gave a melting point of 148 to 149 °C. With `Cc1c2c(c(C)c3c1NC(C)(C)C3)OC(C)(CI)C2` (configuration not stated) the melting point was 100 to 104 °C. For `CCCNC(=O)N(CCC(=O)OC)CC1CC2c3cccc4[nH]cc(c34)CC2N(C)C1` (configuration not stated), the melting point was 130 to 132 °C. For `COc1ccc(N2N=C(C)C(C(=O)Nc3ccc(F)cc3)C2=O)cc1` (configuration not stated), the melting point was 125 to 128 °C. For `O=C(c1ccccc1NCc1ccncc1)[NH+]([O-])c1cc2ccccc2cn1` (configuration not stated), the melting point was 212 °C. `CCc1ccc(C2C(=O)Oc3ccccc32)cc1` (configuration not stated) gave a melting point of 127 to 132 °C. In the case of `CC1(C)COC(=N)N1c1nc(-c2ccc(C#N)cc2)cs1`, the melting point is reported as 158 to 161 °C. Work on `CCCCN(c1nc(N(CC)CC)nc(N(CCCC)C2CC(C)(C)N(OC)C(C)(C)C2)n1)C1CC(C)(C)N(OC)C(C)(C)C1` yielded a melting point of 109 to 112 °C. For `CN(C)C(=O)n1nc(-c2ccncc2)nc1-c1ccncc1`, the melting point was 140 to 142 °C. `O=C(c1ccc(OC(F)(F)F)cc1)c1ccc(C(F)(F)F)cc1` showed a melting point of 61.5 to 62 °C. In the case of `Cc1ccc(C(=O)NC(NC(=NC#N)Nc2cccnc2)C(Cl)(Cl)Cl)cc1` (configuration not stated), the melting point is reported as 165 to 166 °C. `Cc1cnc(CCCC#N)c(N)c1` gave a melting point of 84 to 87 °C. `CSc1ccc(C(=O)CCC#N)cc1` showed a melting point of 122 to 124 °C. In the case of `CC(C)CCCc1c(-c2ccc(S(C)(=O)=O)cc2)cnn(-c2ccc(F)c(F)c2)c1=O`, the melting point is reported as 111 to 113 °C. Molecule `CN(C)CC#Cc1ccc2c(Nc3ccc(Cl)cc3Cl)c(C#N)cnc2c1` has a melting point of 144 to 145 °C. `CCCCCCCNC(=O)Nc1c(F)cc(F)cc1CCc1ccc(CC(C)(C)C)cc1` showed a melting point of 105 to 107 °C. For `CN1CC[C@@H]2CC(=O)c3cc4c(cc3[C@@H]2C1)OCO4` (relative stereo), the melting point was greater than 250 °C. In the case of `COc1ccc(N2CCN(Cc3n[nH]c4c(F)cccc34)CC2)cc1`, the melting point is reported as 178 to 179 °C. In the case of `CCN1c2ccccc2CC1CNC(=N)N` (configuration not stated), the melting point is reported as 199 °C. In the case of `O=[N+]([O-])c1ccc2nc(-c3cccs3)oc2c1`, the melting point is reported as 208 to 210 °C. For `CCOC(=O)COc1cccc2cc(S(N)(=O)=O)sc12`, the melting point was 168 °C. In the case of `COc1cc(CCC(=O)C2CCCC2=O)cc(OS(=O)(=O)c2ccc(C)cc2)c1OC` (configuration not stated), the melting point is reported as 84 °C. Work on `COC(=O)Cc1ccc(N)c(O)c1` yielded a melting point of 112 to 114 °C. `COc1ccc(N2CCN(c3c(C)c(C)c4c(c3C)OC(C)(C)C4(O)c3ccc(C)cc3)CC2)cc1` (configuration not stated) gave a melting point of 162 to 164 °C. `CC1=C(C(=O)NC(C)(C)C)C(c2ccccc2Cl)C(C(=O)NC(C)C)=C(COCCn2c(C)nc3ccccc32)N1` (configuration not stated) showed a melting point of 191 to 193 °C. For `COc1cccc(Oc2cccnc2C#N)c1`, the melting point was 112 to 114 °C. In the case of `CC(C)C(=O)OC(OC(=O)NC1(C(=O)O)CC1)C(C)C` (configuration not stated), the melting point is reported as 127 to 129 °C. For `ClCc1cn2cc(Cl)cc(Cl)c2n1`, the melting point was 162 to 163 °C. For `CC(C)(C)OC(=O)NC1CCCCc2cc(OCC3CCCCC3)c(Br)cc21` (configuration not stated), the melting point was 142 to 144 °C. `CCCCc1oc2ccccc2c1C(OC)c1cc(I)c(OCCN(CC)CC)c(I)c1` (configuration not stated) showed a melting point of 96 to 98 °C. With `COCCc1nc2c(N)nc3ccccc3c2n1CC(C)(C)CNS(C)(=O)=O` the melting point was 204 to 206 °C. Work on `CC1CCCC(C)C1NSc1nc2ccccc2s1` (configuration not stated) yielded a melting point of 75 to 93 °C. With `CCOC(=O)c1[nH]c2ccc(Cl)cc2c1-c1ccccc1F` the melting point was 191 to 193 °C. In the case of `COc1ccc(-c2coc(C(N)=O)cc2=O)cc1`, the melting point is reported as 262 to 263 °C. With `CC(C)(C)C(=O)C(=CC1CCCCC1)n1cncn1` the melting point was 98 °C. For `COC(=O)c1cc(F)c2ncc(C(=O)NCc3ccc(Cl)cc3)c(O)c2c1`, the melting point was 288 to 290 °C. Work on `CNN(NC)C(=O)Nc1cccc2c1C(=O)c1c-2n[nH]c1-c1cccs1` yielded a melting point of 279 °C. Molecule `O=C(O)Cc1ccc2cc(O)ccc2c1` has a melting point of 208 to 210 °C. `O=[N+]([O-])c1c(NCCO)cc(Cl)cc1NCCO` gave a melting point of 154 °C. In the case of `Cc1[nH]c(=O)c(C(F)(F)C(F)(F)F)c2c1CC(c1ccncc1)CC2` (configuration not stated), the melting point is reported as 265 to 300 °C. `CN(SC(C)(C)C(=O)c1ccccc1)C(=O)ON=C1SC(C)(C)C(=O)N1C` gave a melting point of 98 to 100 °C. In the case of `CC(C)(C)OC(=O)NCC(=O)N[C@@H](Cc1ccccc1)C(=O)O`, the melting point is reported as 138 to 141 °C. In the case of `O=C(Nc1nc2ccc(Cl)cc2s1)c1ccc2cccnc2c1O`, the melting point is reported as greater than 320 °C. Molecule `Clc1ccc(C2=NNCC2)cc1` has a melting point of 90 to 100 °C. `CCN(CC)c1ccc(C2(N(c3ccccc3)c3ccc(N(C)C)cc3)OC(=O)c3ccccc32)c(C)c1` (configuration not stated) gave a melting point of 154 to 156 °C. With `NC(=O)N(O)CCNC(=O)c1ccc(Oc2ccc(Cl)cc2)o1` the melting point was 173 to 175 °C. Work on `CC(C(=O)O)c1ccc2c(=O)c3ccccc3ccc2c1` (configuration not stated) yielded a melting point of 108 to 110 °C. Work on `O=C1CCC(N2Cc3c(OCc4ccc(CN5CCC(O)CC5)cc4)cccc3C2=O)C(=O)N1` (configuration not stated) yielded a melting point of 204 to 206 °C. With `C#CCOc1nc(N)nc(-c2ccccc2)c1-c1ccc(=O)n(C(C)C)n1` the melting point was 145 to 147 °C. `O=c1nc(-c2ccccc2)c2cc([N+](=O)[O-])ccc2n1CC12CC3CC(CC(C3)C1)C2` gave a melting point of 228 to 231 °C. Molecule `COc1ccc(-c2c(NS(=O)(=O)c3ccc(C)cc3)ncnc2OCCO)cc1` has a melting point of 147 to 149 °C. Work on `Cc1oc(-c2ccco2)nc1COc1ccc(CON=C(CCC(=O)O)c2ccccc2)cc1` yielded a melting point of 124 to 125 °C. `c1ccc(C2CCNC3=NCCN32)cc1` (configuration not stated) gave a melting point of 146 °C. In the case of `CC(C)(O)[C@H]1CC[C@H](Cc2cn(-c3ccc(F)cc3)c3ncccc3c2=O)CC1`, the melting point is reported as 208 to 209 °C. `COC(=O)c1[nH]c(-c2ccccc2)c(-c2ccccc2)c1C(=O)OC` showed a melting point of 185 to 187 °C. `COc1ccc(C2=CCN(CCC(O)c3ccc(C#N)cc3)CC2)cc1` (configuration not stated) showed a melting point of 144 to 145 °C. Molecule `CCc1cc(Br)cc2c1C(=O)C(=O)N2` has a melting point of 229 to 230 °C. In the case of `Cc1ccc(C(=Cc2nnnn2C)c2ccc(C)cc2F)c(F)c1`, the melting point is reported as 58 to 60 °C. `Cc1cccc(Oc2ccc3ccc(N)nc3n2)c1` showed a melting point of 100 °C. With `CC(C)C1NC(c2ccccc2)=NNC1=O` (configuration not stated) the melting point was 164 °C. For `Fc1ccc(-c2cc3ncnc(Nc4ccc5[nH]ccc5c4)c3s2)cc1`, the melting point was 193 to 205 °C. `O=C(Nc1ccc(Cl)nc1)c1ccc(-n2ccnc2)c(F)c1` gave a melting point of 210 to 211 °C. In the case of `C[C@H](NC(=O)OCc1ccccc1)C(=O)N1CCC[C@H]1C(=O)NC1CCCCCC1`, the melting point is reported as 110 to 113 °C. Molecule `N#Cc1cnc(N)nc1-c1ccc(Cl)cc1C1(c2ccccc2F)OCC(CCl)O1` (configuration not stated) has a melting point of 184 to 191 °C. Molecule `CCCCCCCCCNC(=O)CCC(=O)OO` has a melting point of 85 to 91 °C. `CC(C)(C)C1Cc2cc([N+](=O)[O-])ccc2N1` (configuration not stated) gave a melting point of 110 to 112 °C. In the case of `O=C(O)C(F)Oc1ccccc1` (configuration not stated), the melting point is reported as 61 to 63 °C. `CC(C)(C)c1cc(-c2nc3n(c2CN2CCOCC2)CCS3)cc(C(C)(C)C)c1O` gave a melting point of 231 to 233 °C. `O=c1[nH]c(-c2ccc(CCCCCl)cc2)cs1` showed a melting point of 111 to 117 °C. Molecule `COC(=O)c1ccc(Cn2ccn(C3CCc4ccccc4C3)c2=S)cc1` (configuration not stated) has a melting point of 133 to 135 °C. Molecule `CCOc1cc(OCC)c2c(c1)S(=O)(=O)N(COc1cc(C(F)(F)F)nn1-c1ccccc1)C2=O` has a melting point of 159 to 160 °C. Work on `Nc1nccc(Oc2ccc3c(C(=O)O)cccc3c2)n1` yielded a melting point of 205 °C. Work on `CC(C)NC1=NS(=O)(=O)c2ccc(C3CCCCC3)cc2N1` yielded a melting point of 131 to 133 °C. In the case of `Cc1cc(F)ccc1-c1nc(NCC(F)(F)F)nc2c1ccc(=O)n2-c1c(F)cccc1F`, the melting point is reported as 195 to 196 °C. With `CC(Nc1ncnc2c1ncn2C1OC(CO)C(O)C1O)c1ccccc1` (configuration not stated) the melting point was 165 to 167 °C. Molecule `COc1ccc(-c2c(Cl)c(CN3C(=O)CCC3=O)nc3sc4c(c23)CCC(C(=O)N2CCOCC2)C4)cc1` (configuration not stated) has a melting point of 170 to 171 °C. Molecule `Cc1cc(C)c(O)c(-c2cc(C(C)C)ccc2C(C)C)c1` has a melting point of 179 °C. Work on `COc1cc2c(cc1C(=O)Cc1ccc(C(=O)O)cc1)C(C)(C)CCC2(C)C` yielded a melting point of 164 to 165 °C. `O=C(CC1CCCCC1=O)c1ccc(O)cc1` (configuration not stated) showed a melting point of 120 to 125 °C. For `CC(=O)n1ccc(-c2ccc(F)cc2)c1-c1ccc(S(C)(=O)=O)cc1`, the melting point was 211 to 214 °C. In the case of `CCCc1c(OCCCCCCCCCCC(=O)O)ccc(C(C)=O)c1O`, the melting point is reported as 57 to 58 °C. `COc1ccc2c(ccn2-c2cccc(C#N)c2)c1` gave a melting point of 113 to 115 °C. `N=C(N)NCCCCCC(=O)Oc1ccc2cc(C(=N)N)ccc2c1` showed a melting point of 136 °C. For `CN1CCN(Cc2ccc(Cl)nc2)C1=N[N+](=O)[O-]`, the melting point was 165 to 167 °C. Work on `O=C(c1ccccc1)N1Cc2[nH]c3ccccc3c(=O)c2C1` yielded a melting point of 275 °C. `CCOC(=O)C1=C(NC(=O)Nc2ccc(Cl)c(C(=O)OCC)c2)CCC1` showed a melting point of 110 to 112 °C. With `Cc1ncc(C#N)c(Nc2ccc3[nH]ccc3c2C)c1-c1cc2ccccc2o1` the melting point was 154 to 155 °C. `CC(C)C(=O)Nc1ccc(S(=O)(=O)c2ccc(F)cc2)cc1` showed a melting point of 112 to 115 °C. `COc1cc(C)ccc1S(=O)(=O)NC(=O)C(c1cc(OC)c2c(c1)OCO2)c1cn(C)c2cc(CO)ccc12` (configuration not stated) gave a melting point of 145 to 147 °C.
